The target in experiment [1] is T1, pathological a-synuclein aggregates (Homo sapiens, UniProt P37840). Nature of the experiment: Autoradiography of Example-1 [^3H-1] in brain sections from PD, PDD and NDC donors. The experiment is classed as binding. Also on record: Frozen human brain sections from one familial PD case; from tissue; host or cells: frozen human brain sections: familial PD (SNCA G51D), PDD or idiopathic PD, MSA, NDC controls. The conditions noted are these: PDD brain tissue, autoradiography. How it is done:
(§1) Frozen human brain sections from one familial PD case (a-synuclein [SNCA] gene G51 D missense mutation), labelled as SNCA (G51 D), one PDD case and two non-demented control (NDC) cases were first briefly fixed for 15 minutes at 4° C. with 4% paraformaldehyde (Sigma, 252549) and washed three times for five minutes with PBS (Dulbecco's phosphate buffered saline, Sigma) at RT. All slides were then equilibrated for 20 minutes in 50 mM Tris-HCl pH 7.4 buffer prior to use in the experiment. Each brain section was incubated with a fixed concentration (10 nM) of tritiated example compound 1 (Example-1 [^3H-1]) or a reference a-syn ligand ([3H]-a-syn-Ref), or increasing concentrations of Example-1 [^3H-1] in the range of 1.25 nM to 80 nM of tritiated compound in Tris-HCl buffer for two hours at RT (Total binding, ‘−’). To determine non-specific (NS) binding Example-1 [^3H-1] or [3H]-a-syn-Ref was mixed with 1 μM of non-radiolabelled compound (Example 1 or a-syn-Ref respectively, self-block, ‘+’). The slides were washed and placed under Phosphor imaging screens (GE healthcare, BAS-IP TR 2025) in imaging cassettes. Imaging screens were scanned using a laser imaging system (Typhoon, FLA 7000) and resulting images were analyzed using the ImageJ software package.

Experiment [2] has as its target T2, a-syn aggregates (Lewy bodies and Lewy neurites) (Homo sapiens, UniProt P37840).
T2 construct: performed on frozen human brain sections from different a-synucleinopathy cases; from tissue; host or cells: frozen human brain sections (PD, PDD, MSA, DLB, LBV; NDC as controls)
Kind of experiment: High resolution micro-autoradiography of Example-1 [^3H-1] in a-synucleinopathy tissues. To be noted: 60 nM; PD, PDD, MSA, DLB, LBV tissue. The experiment is classed as binding. How it is done: (§2) The protocol was adapted from Marquie et al., 2015. Sections were incubated with tritiated example compound 1 (Example-1 [3H-1]) or a reference Tau ligand ([3H]-Tau-Ref at 60 nM for one hour at room temperature (RT). Sections were then washed as follows: One time in ice-cold 50 mM Tris-HCl pH 7.4 buffer for one minute, two times in 70% ice-cold ethanol for one minute, one time in ice-cold 50 mM Tris-HCl pH 7.4 buffer for one minute and finally rinsed briefly in ice-cold distilled water. Sections were subsequently dried and then exposed to Ilford Nuclear Emulsion Type K5 (Agar Scientific, AGP9281) in a light-proof slide storage box. After five days, the sections were developed by immersing them successively in the following solutions: 1.) Ilford Phenisol Developer (1:5 dilution in H2O, Agar Scientific, AGP9106), 2.) Ilfostop solution (1:20 dilution in H2O, Agar Scientific, AGP9104), 3.) Ilford Hypam Fixer (1:5 dilution in H2O, Agar Scientific, AGP9183) and finally rinsed with H2O.
When indicated, immunostaining was also performed on the same section. For image acquisition, sections were mounted using ProLong Gold Antifade reagent (Invitrogen P36930) and imaged on a Panoramic150 Slide Scanner (3DHistech) with a 20× objective capturing separately brightfield and fluorescent images. […]

In experiment [3] the test system is Tau aggregates. Kind of experiment: Micro-autoradiography of Example-1 [^3H-1] on AD tissue. The experiment is classed as binding, human. To be noted: AD brain tissue, compared to [3H]-Tau-Ref. The method, then: as §2, with “H2O. […]” for “H2O.”
Experiment [4] has as its target T1, pathological a-synuclein aggregates. Kind of experiment: Autoradiography of Example-1 [^3H-1] in brain sections from PD, PDD and NDC donors. Format: binding. The method, then:
as §1

Experiment [5] concerns the target T3, pathological a-synuclein aggregates (Homo sapiens, UniProt P37840, G51D).
T3 construct: Frozen human brain sections from one familial PD case; from tissue; host or cells: frozen human brain sections: familial PD (SNCA G51D), PDD or idiopathic PD, MSA, NDC controls
The experiment is described as above. Format: binding. To be noted: Genetic PD (SNCA (G51D)) brain tissue, autoradiography. The method, then:
as §1

For experiment [6], the target named is T4, TAR DNA-binding protein 43 (TDP-43) aggregates (Homo sapiens, UniProt Q13148).
T4 construct: present in Frontotemporal Lobar Degeneration TDP (FTLD-TDP) Type C brain tissue; from tissue; host or cells: FTLD-TDP type C brain tissue sections
T4 sequence (Q13148 whole entry): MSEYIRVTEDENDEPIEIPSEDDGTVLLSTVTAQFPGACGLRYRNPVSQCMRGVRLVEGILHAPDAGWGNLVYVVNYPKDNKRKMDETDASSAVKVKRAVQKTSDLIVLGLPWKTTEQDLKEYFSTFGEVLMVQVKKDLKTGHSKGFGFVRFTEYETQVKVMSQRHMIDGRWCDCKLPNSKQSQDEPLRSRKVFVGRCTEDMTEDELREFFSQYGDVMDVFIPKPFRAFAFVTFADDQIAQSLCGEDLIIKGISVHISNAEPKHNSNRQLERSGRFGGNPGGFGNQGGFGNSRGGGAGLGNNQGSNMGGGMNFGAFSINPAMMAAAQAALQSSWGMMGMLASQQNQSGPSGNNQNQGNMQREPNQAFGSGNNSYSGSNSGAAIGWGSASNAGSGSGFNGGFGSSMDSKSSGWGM
Kind of experiment: Micro-autoradiography of Example-1 [^3H-1] on FTLD-TDP type C tissue. The conditions noted are these: FTLD-TDP Type C brain tissue. The method, then: as §2, with “H2O. […]” for “H2O.”

Experiment [7] concerns the target T5, PD brain-derived a-syn aggregates (Homo sapiens, UniProt P37840).
T5 construct: from tissue; host or cells: human PD donor brain, sarkosyl-insoluble 100,000 x g pellet
Nature of the experiment: Saturation binding of Example-1 [^3H-1] by micro-radiobinding. To be noted: head-to-head with [3H]-a-syn-Ref. The method, then:
(§3) PD brain-derived a-syn aggregates were spotted onto microarray slides. The slides were incubated with Example-1 [^3H-1] or [3H]-a-syn-Ref at increasing concentrations in the range of 300 pM to 150 nM. After incubation, slides were washed and exposed to a phosphor storage screen (GE healthcare, BAS-IP TR 2025). Following exposure, phosphor storage screens were scanned with a laser imaging system (Typhoon FLA 7000) to readout the signal from the radiobinding experiments described above. Quantification of the signal was performed using the ImageJ software package.

Experiment [8] deals with T6, a-syn pathology (Homo sapiens, UniProt P37840).
T6 construct: performed on frozen human brain sections from different a-synucleinopathy cases; from tissue; host or cells: frozen human brain sections (PD, PDD, MSA, DLB, LBV; NDC as controls)
Kind of experiment: Autoradiography of Example-1 [^3H-1] in brain sections from PD, PDD, MSA, LBV and NDC donors. Format: binding. The conditions noted are these: 10 nM. The method, then: Frozen human brain sections from one PD case, two PDD cases, two MSA cases, one LBV case and three non-demented control (NDC) cases were first briefly fixed for 15 minutes at 4° C. with 4% paraformaldehyde (Sigma, 252549) and washed three times for five minutes with PBS (Dulbecco's phosphate buffered saline, Sigma) at RT. All slides were then equilibrated for 20 minutes in 50 mM Tris-HCl pH 7.4 buffer prior to use in the experiment. Each brain section was incubated with a fixed concentration (10 nM) of tritiated example compound 1 (Example-1 [^3H-1]) in Tris-HCl buffer for two hours at RT (Total binding, ‘Total’). […] The slides were washed and then exposed and scanned in a real-time autoradiography system (BeaQuant instrument, ai4R).

Experiment [9] deals with T7, Abeta pathological aggregates (Homo sapiens, UniProt P05067).
T7 construct: Abeta pathological aggregates present in the human AD brain homogenates; from tissue; host or cells: human AD donor brain, Triton/sucrose-insoluble 100,000 x g pellet
T7 sequence (P05067 672-713 limits assumed): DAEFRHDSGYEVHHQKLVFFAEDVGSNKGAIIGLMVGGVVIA
Kind of experiment: Radiobinding competition assay against [^3H]-Abeta-Ref on AD brain homogenates (example compound 1). The experiment is classed as binding. How it is done:
The procedure was adapted from the protocol described in Bagchi et al., 2013. Frozen tissue blocks from AD donors were thawed on ice and homogenized in high salt buffer (50 mM Tris-HCl pH 7.5, 0.75M NaCl, 5 mM EDTA) supplemented with protease inhibitors (Complete; Roche 11697498001) at 4° C. using a glass Dounce homogenizer. The homogenate was centrifuged at 100,000×g (38,000 RPM) in an ultracentrifuge (Beckman, XL100K) for one hour at 4° C. using a pre-cooled 70.1 rotor (Beckman, 342184). Pellets were resuspended in high salt buffer supplemented with 1% Triton X-100 and homogenized at 4° C. using a glass Dounce homogenizer. The homogenates were centrifuged again at 100,000×g (38,000 RPM, 70.1 rotor) for one hour at 4° C. Pellets were resuspended in high salt buffer supplemented with 1% Triton X-100 and 1 M sucrose and homogenized at 4° C. using a glass Dounce homogenizer. The homogenates were centrifuged at 100,000×g (38,000 RPM, 70.1 rotor) for one hour at 4° C. […]
A fixed concentration of AD insoluble fraction was incubated with a tritiated reference Abeta ligand ([^3H]-Abeta-Ref) at 10 nM and increasing concentrations of non-radiolabelled example compound 1 in the range of […] to 2 μM for two hours at RT. […] The filters were analyzed on a Microbeta2 scintillation counter (PerkinElmer). […]

Experiment [10] deals with T5, PD brain-derived a-syn aggregates. Kind of experiment: Micro-radiobinding competition assay against [^3H]-a-syn-Ref. The experiment is classed as binding. How it is done:
The procedure was adapted from the protocol described in Spillantini et al., 1998. Frozen tissue blocks from PD donors were thawed on ice and homogenized using a glass dounce homogenizer. The homogenate was then centrifuged at 11,000×g (12,700 RPM) in an ultracentrifuge (Beckman, XL100K) for 20 minutes at 4° C. using a pre-cooled 70.1 rotor (Beckman, 342184). Pellets were resuspended in extraction buffer [10 mM Tris-HCl pH 7.4, 10% sucrose, […], 1% protease inhibitor (Calbiochem 539131), 1 mM EGTA, 1% phosphatase inhibitor (Sigma P5726 and P0044)] and centrifuged at 15,000×g (14,800 RPM, a 70.1 Ti rotor) for 20 minutes at 4° C. Pellets were discarded and sarkosyl (20% stock solution, Sigma L7414) was added to the supernatants to a final concentration of 1% at room temperature for one hour. This solution was then centrifuged at 100,000×g (38,000 RPM, 70.1 Ti rotor) for one hour at 4° C. Pellets containing enriched a-syn aggregates were resuspended in PBS and stored at −80° C. until use.
as §3, with “the tritiated reference ligand, [^3H]-a-syn-Ref (as described in WO2017/153601) at 20 nM and the example compounds of this invention (non-radiolabelled) either at 1 μM” for “Example-1 [^3H-1]”, “or” for “or [3H]-a-syn-Ref”, “50” for “300”, “2 μM.” for “150 nM.”, “package. […] All measurements were performed with at least two technical replicates.” for “package.”
Example compounds were assessed for their potency to compete with the binding of [3H] radiolabelled reference ligand to PD patient brain-derived a-syn aggregates. Results of the micro-radiobinding competition assay for the example compounds tested are shown in Table 5 as: % competition at 1 μM and Ki value. All measurements were performed on the same PD brain-derived a-syn aggregates.

The structures appear in SMILES notation. “Also recorded” adds a separate entry of the source. Like-named read-outs stand apart in the source and are kept apart here.

One may read the Kd as the concentration at which binding is half-saturated. In the case of `[3H]c1cncc(N2Cc3nn(-c4cnc(N5CC[C@@H](F)C5)c([3H])c4)cc3C2=O)c1` [Example-1 [^3H-1]], the B max is 1104 in experiment [1] and 3004 in experiment [5]. Further, the Kd is 11 nM in experiment [1]; 11 to 13 nM in experiment [4] (PDD and genetic PD tissue, range of both, read-out: dissociation constant (Kd)); 13 nM in experiment [5]. In addition, the “target engagement on Lewy bodies and Lewy neurites (silver grains)” value in experiment [2] was “Accumulation of silver grains on Lewy bodies and Lewy neurites; also recorded: strong target engagement”. The “target engagement on Tau aggregates” value in experiment [3] is reported as “No accumulation of silver grains on Tau tangles; also recorded: did not display specific target engagement”. In addition, the “binding in non-diseased tissue (NDC)” value in [4] (autoradiography, 10 nM) was “very weak binding”. The “specific binding in a-synucleinopathy brain sections” value in [4] (autoradiography, PDD and PD tissue, compared to [3H]-a-syn-Ref at 10 nM) was “improved total and excellent specific binding”. Further, the “binding to TDP-43 aggregates” value in experiment [6] is “No accumulation of silver grains on TDP-43 aggregates; also recorded: very weak to no binding”. Moreover, the binding site occupancy entry in experiment [7] is “high and improved binding site occupancy”. In addition, the “autoradiographic signal in non-demented control cases” value in experiment [8] was “weak”. Also, the “target engagement in a-synucleinopathy tissues” value in experiment [8] (MSA, LBV, PDD cases) is on record as “target engagement”.

The Ki is a measure of affinity in units of concentration, obtained from inhibition or displacement. Turning to `O=C1c2cn(-c3ccc(N4CC[C@@H](F)C4)nc3)nc2CN1c1cccnc1` [Example 1], the Ki is 330 nM in [9] (displacement of [^3H]-Abeta-Ref at 10 nM, AD brain-derived homogenates) and 30 nM in experiment [10] (displacement of [^3H]-a-syn-Ref, average of two independent experiments). For the same compound, in experiment [9] (in words), the “selectivity for a-syn over Abeta pathological aggregates” value was “good selectivity for a-syn over Abeta”. The “binding to PD brain-derived a-syn aggregates” value in [10] (in words) was “good binding”. For the same compound, the “Competition at 1 μM (%)” value in experiment [10] (over [^3H]-a-syn-Ref at 20 nM, example compound at 1 μM) worked out at 94%.

(Values after patent US12552800B2, “Compounds for diagnosis” (AC IMMUNE SA, priority 2020, dated 2026).)
